In PubChem BioAssay AID624323 (Sanford-Burnham Center for Chemical Genomics, 2012):
Converted amounts (≈) assume the structure as drawn. The source made the active and inactive calls. How the calls were made is not given here.

System: aqueous buffer solubility, pH 5.0/6.2/7.4
Assay: aqueous buffer solubility at three pH values, ADME assay, biophysical, set 2 (AID 624323)
Settings: at 100 µM, stronger effect = higher value
[1] = measured here: solubility at pH 5.0
[2] = measured here: solubility at pH 6.2

solubility | solubility [1] | solubility [2] | SMILES
> 36 µg/mL | > 36 µg/mL | > 36 µg/mL | CCCC(=O)Nc1cccc(NC(=O)c2ccccc2Br)c1
0.69 µg/mL (inactive) (≈ 2.53 µM) | 0.85 µg/mL (≈ 3.11 µM) | 0.9 µg/mL (≈ 3.29 µM) | COC(=O)c1ccccc1NC(=O)c1ccc(F)cc1
0 µg/mL (inactive) | 0.01 µg/mL (≈ 0.0253 µM) | < 0.01 µg/mL | COc1ccc(Sc2ccc(NC(=O)c3ccccc3Cl)cc2C#N)cc1
0.54 µg/mL (inactive) (≈ 1.56 µM) | 0.42 µg/mL (≈ 1.22 µM) | 0.52 µg/mL (≈ 1.51 µM) | N#Cc1ccccc1CSc1nc2ncc(Br)cc2[nH]1
25.8 µg/mL (≈ 63.3 µM) | > 40 µg/mL | > 40 µg/mL | CCN1CCN(c2nc3ccccc3nc2C(C#N)C(=O)OC2CCCCC2)CC1 (centres undefined)
41.5 µg/mL (≈ 83.2 µM) | > 49 µg/mL | 41.2 µg/mL (≈ 82.6 µM) | COc1ccc(C2c3c(ncn(CCN4CCOCC4)c3=N)Oc3ccc4ccccc4c32)cc1OC (centres undefined)
< 0.01 µg/mL (inactive) | 0.06 µg/mL (≈ 0.188 µM) | 0.12 µg/mL (≈ 0.375 µM) | CN(C)C1=C(Cl)C(=O)N(c2ccc(Cl)c(Cl)c2)C1=O
0.11 µg/mL (inactive) (≈ 0.336 µM) | 0.16 µg/mL (≈ 0.489 µM) | 0.19 µg/mL (≈ 0.58 µM) | Cc1cc2c(s1)c1cnn(Cc3ccccc3F)c(=O)c1n2C
> 38 µg/mL | > 38 µg/mL | > 38 µg/mL | CCCn1ncc(CN2CCCC(C(=O)c3cccc(OC(C)C)c3)C2)c1C (centres undefined)
26.2 µg/mL (≈ 94.5 µM) | > 36 µg/mL | > 36 µg/mL | COc1ccc(CNCc2cccc3ccccc23)cc1
26.1 µg/mL (≈ 63.3 µM) | 28.2 µg/mL (≈ 68.4 µM) | 29.5 µg/mL (≈ 71.5 µM) | COc1ccc(OC)c(-c2nnc3n2N=C(c2ccc(OC)c(OC)c2)CS3)c1
0.01 µg/mL (inactive) (≈ 0.0333 µM) | 0.02 µg/mL (≈ 0.0666 µM) | 0.01 µg/mL (≈ 0.0333 µM) | CSc1nc(-c2ccc(C)cc2)nc(C(Cl)Cl)n1
> 27 µg/mL | > 27 µg/mL | > 27 µg/mL | O=C(CSc1cccc2cccnc12)N1CCCC1
7.4 µg/mL (inactive) (≈ 17 µM) | 14.6 µg/mL (≈ 33.5 µM) | 4.8 µg/mL (≈ 11 µM) | CC(C)(C)OC(=O)NCCc1nnc(S(=O)(=O)Cc2ccc(Cl)cc2Cl)o1
3 µg/mL (inactive) (≈ 6.87 µM) | 1.8 µg/mL (≈ 4.12 µM) | 2.5 µg/mL (≈ 5.73 µM) | CS(=O)(=O)c1ccc(C(=O)OCC(=O)NC23CC4CC(CC(C4)C2)C3)cc1[N+](=O)[O-]
> 27 µg/mL | > 27 µg/mL | > 27 µg/mL | Cn1cnc([N+](=O)[O-])c1Sc1ncnc2nc[nH]c12
0.78 µg/mL (inactive) (≈ 2.01 µM) | 0.09 µg/mL (≈ 0.232 µM) | 0.16 µg/mL (≈ 0.412 µM) | CCc1nnc(NC(=O)c2ccc(NS(=O)(=O)c3ccccc3)cc2)s1

solubility | solubility [1] | solubility [2] | SMILES
> 30 µg/mL | > 30 µg/mL | > 30 µg/mL | Cc1cc(-c2nnc3n2CCCCC3)c(C)n1-c1ccccc1
20.7 µg/mL (≈ 57.9 µM) | 17.6 µg/mL (≈ 49.2 µM) | 20.4 µg/mL (≈ 57.1 µM) | Cc1cc(C)n(-c2nc(NCCCO)c3c4c(sc3n2)CCCC4)n1
< 0.01 µg/mL (inactive) | 0.09 µg/mL (≈ 0.217 µM) | 0.05 µg/mL (≈ 0.12 µM) | COc1cccc(-c2nc(-c3ccc(NC(=O)Cc4ccccc4OC)cc3)no2)c1
> 32 µg/mL | 25.2 µg/mL (≈ 77.7 µM) | 22.6 µg/mL (≈ 69.7 µM) | Cc1cc(C(=O)CN2C(=O)CCC2=O)c(C)n1Cc1ccccc1
14.9 µg/mL (≈ 39.9 µM) | 0.46 µg/mL (≈ 1.23 µM) | 2 µg/mL (≈ 5.36 µM) | COc1ccc(S(=O)(=O)n2nc(OC(=O)c3ccccc3)cc2N)cc1
> 26 µg/mL | > 26 µg/mL | > 26 µg/mL | O=C(O)c1cccnc1SCCc1ccccc1
> 25 µg/mL | > 25 µg/mL | > 25 µg/mL | Brc1ccc2c(c1)CN1CCCC1=N2
1 µg/mL (inactive) (≈ 2.64 µM) | 2.8 µg/mL (≈ 7.38 µM) | 1 µg/mL (≈ 2.64 µM) | CN(C)c1nc(N)nc(CSc2nnnn2-c2cccc3ccccc23)n1
22.7 µg/mL (≈ 53.3 µM) | 7.4 µg/mL (≈ 17.4 µM) | 15 µg/mL (≈ 35.2 µM) | O=C(c1ccccn1)N(Cc1cccs1)C1(C(=O)NC2CCCCC2)CCCCC1
0.12 µg/mL (inactive) (≈ 0.328 µM) | 0.14 µg/mL (≈ 0.382 µM) | 0.14 µg/mL (≈ 0.382 µM) | NC(=O)C1CCN(c2nc(-c3ccc(Br)cc3)cs2)CC1
> 39 µg/mL | > 39 µg/mL | > 39 µg/mL | CCCN1CNc2c(c(=O)[nH]c(=S)n2CCc2ccc(OC)c(OC)c2)C1
27.4 µg/mL (≈ 56.1 µM) | > 48 µg/mL | > 48 µg/mL | O=[N+]([O-])c1ccc(CN2CCOCCOCCN(Cc3ccc([N+](=O)[O-])cc3)CCOCC2)cc1
0.05 µg/mL (inactive) (≈ 0.123 µM) | 0.06 µg/mL (≈ 0.147 µM) | 0.04 µg/mL (≈ 0.0982 µM) | COc1ccc(C2CC(c3ccccc3)=NN2c2ccc(S(N)(=O)=O)cc2)cc1 (centres undefined)
20.1 µg/mL (≈ 65 µM) | 0.19 µg/mL (≈ 0.614 µM) | 0.34 µg/mL (≈ 1.1 µM) | Cc1ccc(C)c(OCCn2cc(C(=O)O)c3ccccc32)c1
0.39 µg/mL (inactive) (≈ 1.05 µM) | 0.24 µg/mL (≈ 0.648 µM) | 0.31 µg/mL (≈ 0.837 µM) | C/C=C/Cn1c(SCCCc2ccccc2)nc2c1c(=O)[nH]c(=O)n2C
1.6 µg/mL (inactive) (≈ 4.74 µM) | 1.8 µg/mL (≈ 5.33 µM) | 1.5 µg/mL (≈ 4.44 µM) | Cc1ccc(N2CCN(S(=O)(=O)N3CCCCC3)CC2)c(C)c1
